Results on two compounds are retold here after the NIST ThermoML archive (doi:10.1016/j.jct.2017.01.001).

The structures appear in SMILES notation. Numbers after ± are expanded uncertainties.

The data set is described as follows: wn = mass fraction of the nth substance listed. The note with it: 100 kPa, Liquid, Pycnometric method.

Turning to `O=C([O-])[O-].[K+].[K+]` [potassium carbonate] + O, the mass density worked out at 1583.2 ± 20 kg/m3 (323.15 K, w1 = 0.5495); 1594.3 ± 20 kg/m3 (343.15 K, w1 = 0.5753); 1626.5 ± 20 kg/m3 (363.15 K, w1 = 0.5961).
Regarding `O=C([O-])[O-].[Na+].[Na+]` [sodium carbonate] + O, the mass density was found to be 1323.5 ± 20 kg/m3 (323.15 K, w1 = 0.323); 1310.2 ± 20 kg/m3 (343.15 K, w1 = 0.3141); 1268.7 ± 20 kg/m3 (363.15 K, w1 = 0.3071).
